“Also recorded” adds a separate entry of the source.

Test [1] has as its system kidney sympathetic nervous activity. Briefly: Rat kidney sympathetic nervous activity after transduodenal administration (electrical discharge recording). Format: in vivo. The note with it: male Wister rats, urethane-anesthesia. Here is the method:
In these experiments, use was made of male Wister rats weighing about 300 to 350 g which had been preliminarily fed in a thermostatic chamber (24° C.) with a light-dark cycle of 12-hour intervals (under illumination from 8:00 to 20:00) for 1 week or longer. A single rat was employed for each nervous experiment. The animals were fed with a feed (MF: Oriental Yeast) and water ad libitum. The autonomic nervous activity were examined by fasting the rats for 5 hours on the day of the experiment and then subjecting to an abdominal surgery under urethane-anesthesia (1 g/kg, i.p.). Then, the effects of the transduodenal administration of L-phenyl lactic acid and D-phenyl lactic acid (10 μg or 100 μg) on the kidney sympathetic nervous activity were measured in accordance with the method reported by T. Yamano et al., Neurosci. Lett. 313:78-82 (2001), A. Niijima et al., Autonom. Neurosci.: Basic & Clinical 97:99-102 (2002) and M. Tanida et al., Am. J. Physiol: Regulatory, Integrative and Comparative Physiology 288:R447-R455 (2005). Namely, the sympathetic nerve projecting toward the kidney was cut before the organ and the central side was placed on a silver electrode. Thus, a change in the electrical activity was monitored. To prevent dryness, the electrode had been preliminarily dipped in a mixture of liquid paraffin and petroleum jelly for a sufficient period of time. From the initiation of the surgery to the completion of the measurement, a tube was inserted into the respiratory tract for the management of the airway. The body temperature (rat rectal temperature) was maintained at 35±0.5° C. with the use of a heater. The transduodenal administration was conducted by dissolving L-phenyl lactic acid or D-phenyl lactic acid in physiological saline to give a concentration of 10 μg/2 ml or 100 μg/2 ml, and administering 2 ml/animal of each solution at a rate of 1 ml/min through a polyethylene tube inserted into the duodenum. Electrical nervous activity thus obtained were amplified with a condenser type differential amplifier, monitored with an oscilloscope and recorded on a magnetic tape. To separate the raw data from the background noise, all of the nervous activities were converted into standard pulses by use of a slicer and a window discriminator before analyzing. Discharge frequencies were indicated on a pen recorder by using a rate meter at a reset time of 5 seconds. The data was analyzed based on the average discharge frequency per 5 seconds (pulse/5 sec) and expressed in percentage by referring the level before the administration as to 100%. A group with the administration of physiological saline was employed as a control.

Another test deals with blood pressure. Description: Rat blood pressure after transduodenal administration (femoral artery cannula, transducer). Type of test: in vivo. The note with it: 100 μg, FIG. 4.
The subject of test [2] is stomach vagal (parasympathetic) nervous activity. Briefly: Rat stomach vagal (parasympathetic) nervous activity after transduodenal administration. Type of test: in vivo. The note with it: 100 μg, FIG. 5.
Test [3] relates to pathogenic Escherichia coli O-157. The note with it: phenyl lactic acid produced by use of a lactic acid bacterium; cited from earlier work.
A further test deals with Aspergillus niger. The note with it: etc.; cited from earlier work.
Test [4] relates to methicillin-resistant Staphylococcus aureus. The note with it: phenyl lactic acid produced by use of a lactic acid bacterium; cited from earlier work.

As to `O=C(O)[C@H](O)Cc1ccccc1` [D-phenyl lactic acid, D-β-3-phenyl lactic acid], the “effect on kidney sympathetic nervous activity” value is “enhanced” in test [1] (10 μg/animal, FIG. 2) and “reduced” in test [1] (100 μg/animal, FIG. 3). The “effect on rat blood pressure” value in the test with blood pressure is recorded as “hypotensive effects”.
Turning to `O=C(O)[C@@H](O)Cc1ccccc1` [L-phenyl lactic acid, L-β-3-phenyl lactic acid], the “effect on kidney sympathetic nervous activity” value is given as “little effect” in test [1] (10 μg/animal, FIG. 2) and “reduced; also recorded: higher reducing effect” in test [1] (100 μg/animal, FIG. 3). Besides, the “effect on rat blood pressure” value in the test on blood pressure is “hypotensive effects”. The “effect on rat stomach vagal (parasympathetic) nervous activity” value in test [2] is recorded as “enhancement”.
As for `O=C(O)C(O)Cc1ccccc1` (stereo not shown) [phenyl lactic acid, 2-hydroxy-3-phenyl propionic acid], the antibacterial effect result in test [3] and in test [4] was “antibacterial effect” each time. Also, the antifungal activity entry in the test with Aspergillus niger is reported as “antifungal activity”.

The values are drawn from patent publication US8492442B2, “Medicinal composition, food or drink having effect of enhancing parasympathetic nervous activity” (Suntory Holdings Limited, priority 2007, dated 2013).
